Laboratory results: ChEMBL document CHEMBL1201862, “PubChem BioAssay data set” (2004)
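A five-concentration, 48-hour dose response in 96-well plates underlies each endpoint, interpolated linearly between surrounding concentrations. At the GI50, growth is halved.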 The source made the active and inactive calls. No stated cut-off is given here; in the data, active = GI50 up to about 1.1 µM and inactive = higher.

What was measured:
Assay in all cases: DTP human tumour cell line panel, 48 h
HCC 2998 = test system: HCC 2998
RXF 393 = test system: RXF 393
Malme-3M = test system: Malme-3M
SF-295 = test system: SF-295
HT-29 = test system: HT-29
SK-MEL-5 = test system: SK-MEL-5
MDA-MB-231 = test system: MDA-MB-231
OVCAR-8 = test system: OVCAR-8
HCT-116 = test system: HCT-116
OVCAR-5 = test system: OVCAR-5
RPMI-8226 = test system: RPMI-8226
HOP-92 = test system: HOP-92
NCI-H23 = test system: NCI-H23
SW-620 = test system: SW-620
SNB-75 = test system: SNB-75
A498 = test system: A498
BT-549 = test system: BT-549
CAKI-1 = test system: CAKI-1
SR = test system: SR
MOLT-4 = test system: MOLT-4

Row | SMILES | GI50 (HCC 2998) | GI50 (RXF 393) | GI50 (Malme-3M) | GI50 (SF-295) | GI50 (HT-29) | GI50 (SK-MEL-5) | GI50 (MDA-MB-231) | GI50 (OVCAR-8) | GI50 (HCT-116) | GI50 (OVCAR-5) | GI50 (RPMI-8226) | GI50 (HOP-92) | GI50 (NCI-H23) | GI50 (SW-620) | GI50 (SNB-75) | GI50 (A498) | GI50 (BT-549) | GI50 (CAKI-1) | GI50 (SR) | GI50 (MOLT-4)
1 | CC(=O)C1=C(C)N(c2ccc(C)cc2)C2(O)C=CC(=O)C3C(=O)N(c4ccccc4)C(=O)C132 (stereo not drawn) | 22.5 µM (inactive) | 20.3 µM (inactive) | 19.6 µM (inactive) | 14.4 µM (inactive) | 18.6 µM (inactive) | 15.4 µM (inactive) | 22.5 µM (inactive) | 23.3 µM (inactive) | 6.49 µM (inactive) | 55.2 µM (inactive) | 3.85 µM (inactive) | 16.8 µM (inactive) | 17.1 µM (inactive) | 4.45 µM (inactive) | 24.4 µM (inactive) | 20.2 µM (inactive) | 17.4 µM (inactive) | 18.6 µM (inactive) | 2.94 µM (inactive) | 
2 | C=C1C(=O)OC2/C=C(/C)C(OC(C)=O)C/C=C(\C)C(OC(=O)C3(C)OC3C)C(O)C12 (stereo not drawn) | > 100 µM (inactive) | > 100 µM (inactive) |  | > 100 µM (inactive) | > 100 µM (inactive) | > 100 µM (inactive) | > 100 µM (inactive) | > 100 µM (inactive) | 39.7 µM (inactive) | > 100 µM (inactive) | 43.9 µM (inactive) | > 100 µM (inactive) | > 100 µM (inactive) | 42.4 µM (inactive) | 97.7 µM (inactive) | > 100 µM (inactive) | 65.6 µM (inactive) | 65.8 µM (inactive) | 39.4 µM (inactive) | 36.9 µM (inactive)
3 | CN(Cc1cnc2nc(N)nc(N)c2n1)c1ccc(C(=O)N[C@@H](CCC(=O)O)C(=O)O)cc1 [METHOTREXATE] | 0.119 µM (active) | 20.7 µM (inactive) | 2.36 µM (inactive) | 0.0383 µM (active) | 0.0335 µM (active) | 0.09 µM (active) | 38.7 µM (inactive) | 0.0292 µM (active) | 0.0347 µM (active) | 0.916 µM (active) | 0.0661 µM (active) | 7.21 µM (inactive) | 0.0408 µM (active) | 0.0388 µM (active) | 21.7 µM (inactive) | 4.78 µM (inactive) | 69.5 µM (inactive) | 0.0614 µM (active) | 0.0373 µM (active) | 0.0326 µM (active)
4 | CCOC(=O)c1c(Sc2ccc([N+](=O)[O-])cc2[N+](=O)[O-])nc2c3ccccc3ccn12 | > 28.6 µM (inactive) | 21 µM (inactive) |  | 28.7 µM (inactive) | > 100 µM (inactive) | 80.2 µM (inactive) | 29.1 µM (inactive) | 33.8 µM (inactive) | > 91 µM (inactive) | > 100 µM (inactive) | 36.3 µM (inactive) | 13.9 µM (inactive) | > 91 µM (inactive) | > 100 µM (inactive) | 13.3 µM (inactive) | 62.8 µM (inactive) | > 75.2 µM (inactive) | 15.6 µM (inactive) | > 100 µM (inactive) | > 100 µM (inactive)
5 | COC1=C(Br)C(O)C2(C=C1Br)CC(C(=O)NCCCCNC(=O)C1=NOC3(C=C(Br)C(OC)=C(Br)C3O)C1)=NO2 (stereo not drawn) | 52.1 µM (inactive) | 24.8 µM (inactive) | 16.4 µM (inactive) | 25.1 µM (inactive) | 15.9 µM (inactive) | 11.9 µM (inactive) | 22.3 µM (inactive) | 20.3 µM (inactive) | 18.2 µM (inactive) | 50.4 µM (inactive) | 8.99 µM (inactive) | 26.2 µM (inactive) | 40.5 µM (inactive) | 37.1 µM (inactive) | 16.9 µM (inactive) | 31 µM (inactive) | 33.6 µM (inactive) | 63.4 µM (inactive) | 13.8 µM (inactive) | 
6 | N#C[BH2-][n+]1cn(C2CC(O)C(COP(=O)(O)OC3CC(n4cnc5c(N)ncnc54)OC3CO)O2)c2nc(N)[nH]c(=O)c21 (stereo not drawn) | > 100 µM (inactive) | > 100 µM (inactive) | > 100 µM (inactive) | > 100 µM (inactive) | > 100 µM (inactive) | > 100 µM (inactive) | > 100 µM (inactive) | > 100 µM (inactive) | > 100 µM (inactive) | > 100 µM (inactive) |  | > 100 µM (inactive) | > 100 µM (inactive) | > 100 µM (inactive) | > 100 µM (inactive) | > 100 µM (inactive) | > 100 µM (inactive) | > 100 µM (inactive) | > 100 µM (inactive) | 
7 | N#CC12C(=O)N=C(N)C1(C#N)C(c1ccco1)NC1=C2CCCC1 (stereo not drawn) | > 100 µM (inactive) | > 100 µM (inactive) | > 100 µM (inactive) | > 100 µM (inactive) | > 100 µM (inactive) | > 100 µM (inactive) | > 100 µM (inactive) | > 100 µM (inactive) | > 100 µM (inactive) | > 100 µM (inactive) | > 100 µM (inactive) | > 100 µM (inactive) | > 100 µM (inactive) | > 100 µM (inactive) |  | > 100 µM (inactive) | > 100 µM (inactive) | > 100 µM (inactive) | > 100 µM (inactive) | > 100 µM (inactive)
8 | CCN(CC)CCCNC(=O)c1cc(-c2nccn2C)nc2ccccc12 | > 100 µM (inactive) | > 100 µM (inactive) | > 100 µM (inactive) |  | > 100 µM (inactive) | > 100 µM (inactive) | > 100 µM (inactive) | > 100 µM (inactive) | > 100 µM (inactive) | > 100 µM (inactive) | > 100 µM (inactive) | > 100 µM (inactive) | > 100 µM (inactive) | > 100 µM (inactive) | 57.7 µM (inactive) | > 100 µM (inactive) | > 100 µM (inactive) | > 100 µM (inactive) | > 10 µM (inactive) | > 100 µM (inactive)
9 | O=C1c2ccccc2C(=O)N1CCCC(=O)n1cc(F)c(=O)[nH]c1=O | 0.82 µM (active) | > 47.4 µM (inactive) | 27.9 µM (inactive) | 49.1 µM (inactive) | 4.54 µM (inactive) | 12.3 µM (inactive) | > 100 µM (inactive) | 10.7 µM (inactive) | 6.24 µM (inactive) |  | 5.06 µM (inactive) | > 21.4 µM (inactive) | 11.9 µM (inactive) | > 72.6 µM (inactive) | 37 µM (inactive) | 4.69 µM (inactive) | > 100 µM (inactive) | 6.05 µM (inactive) | 5.53 µM (inactive) | 35.4 µM (inactive)
10 | CN(C)CN1C(=O)S/C(=C2\C(=O)N(CN(C)C)c3ccccc32)C1=O | 26.8 µM (inactive) | 19.9 µM (inactive) |  | 96.6 µM (inactive) | 42.4 µM (inactive) | 38.6 µM (inactive) | 66.2 µM (inactive) | 46.6 µM (inactive) | 39.8 µM (inactive) | > 100 µM (inactive) | 18 µM (inactive) | > 100 µM (inactive) | 21.7 µM (inactive) | 30.6 µM (inactive) | 22.2 µM (inactive) | > 100 µM (inactive) | 45.1 µM (inactive) | 32 µM (inactive) | 18.9 µM (inactive) | < 0.01 µM (active)
11 | Cc1cc(S(=O)(=O)/N=C(\NN)NNc2cccc(C(F)(F)F)n2)c(S)cc1Cl | 16.5 µM (inactive) | 29 µM (inactive) | 19.1 µM (inactive) |  | 19.7 µM (inactive) | 20 µM (inactive) | 31.4 µM (inactive) | 24.8 µM (inactive) | 21.3 µM (inactive) | 14.9 µM (inactive) | 32.1 µM (inactive) | 4.21 µM (inactive) |  | 18.5 µM (inactive) | 14.6 µM (inactive) | 22.1 µM (inactive) | 13.3 µM (inactive) | 20.8 µM (inactive) | 21.3 µM (inactive) | 19.2 µM (inactive)
12 | NS(=O)(=O)c1cc(Cl)c(NC(=S)NC(=O)Nc2ccc(Cl)c(Cl)c2)c(Cl)c1 | 59.2 µM (inactive) | 41.3 µM (inactive) | 68.1 µM (inactive) | 37.8 µM (inactive) | 46.8 µM (inactive) | 18.3 µM (inactive) | 50.1 µM (inactive) | 47.6 µM (inactive) | 35.7 µM (inactive) | 80.5 µM (inactive) |  | 55.7 µM (inactive) | 31.6 µM (inactive) | 58.1 µM (inactive) | 59.8 µM (inactive) | 26.7 µM (inactive) | 55.2 µM (inactive) | 76.4 µM (inactive) | 36.2 µM (inactive) | 30.5 µM (inactive)
13 | Cc1sc(Nc2ccccc2[N+](=O)[O-])c(C#N)c1C | > 100 µM (inactive) | 5.12 µM (inactive) | 0.0556 µM (active) | 26.2 µM (inactive) |  |  | 19.6 µM (inactive) | 27.7 µM (inactive) | 17.5 µM (inactive) | 23 µM (inactive) | > 100 µM (inactive) | 18.7 µM (inactive) | 13.9 µM (inactive) |  | 12.1 µM (inactive) | 29.4 µM (inactive) | 19.5 µM (inactive) | 17.1 µM (inactive) | > 100 µM (inactive) | > 100 µM (inactive)
14 | O=C1Nc2c(Cl)cc(Cl)cc2C1=O | 34.7 µM (inactive) | 13.6 µM (inactive) | 1.94 µM (inactive) | 17.1 µM (inactive) | 27.4 µM (inactive) | 15.3 µM (inactive) | 21.2 µM (inactive) | 16.9 µM (inactive) | 19.3 µM (inactive) | 20.7 µM (inactive) |  | 24.1 µM (inactive) | 23.5 µM (inactive) | 18.5 µM (inactive) | 6.03 µM (inactive) | 23.2 µM (inactive) | 18 µM (inactive) | 17.9 µM (inactive) | 12.2 µM (inactive) | 18 µM (inactive)
